Experimental data as given in patent US20260022142A1, “MACROCYCLIC IMMUNOMODULATORS” (Bristol-Myers Squibb Company, priority 2022, published 2026).
pIC50: −log10 of the molar value. Bridge positions count the residues as written; N and C are the ends. Square brackets hold non-standard residues; d marks the D form. Peptide text beside a SMILES is read from it. * marks the point of attachment. ξ: configuration not given here. Phe(4-COOH) = N[C@@H](Cc1ccc(C(=O)O)cc1)C(=O)O; Bip = N[C@@H](Cc1ccc(-c2ccccc2)cc1)C(=O)O; Phe(3-Me) = Cc1cccc(C[C@H](N)C(=O)O)c1; 4Pal = N[C@@H](Cc1ccncc1)C(=O)O; Cha = N[C@@H](CC1CCCCC1)C(=O)O; Cit = NC(=O)NCCC[C@H](N)C(=O)O; Carboxymethyl = O=C(O)C*; Orn = NCCC[C@H](N)C(=O)O; Aun = NCCCCCCCCCCC(=O)O; Dab = NCC[C@H](N)C(=O)O; Dap = NC[C@H](N)C(=O)O; AEEA = NCCOCCOCC(=O)O; ξV = CC(C)C(N)C(=O)O; Propargyl = C#CC*

The molecules below were run against T1, PD-1/PD-L1 interaction (PE-labeled human PD-L1-Ig binding to Jurkat cell line over-expressing human PD-1) (Homo sapiens, UniProt Q15116) (assay: Jurkat-PD-1 Cell Binding High-Content Screening Assay (CBA)). Details: Jurkat cell line over-expressing human PD-1; PE-labeled PD-L1-Ig 20 nM final; read-out: Jurkat hPD1-PDL1 IC50.
T1 construct: expressed in transfected cells; host or cells: Jurkat
Type: cell-based
Summary of the method: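 Binding of fluorescent PD-L1-Ig (20 nM final) to Jurkat-PD-1 cells was measured by automated imaging after 1 h, following a 2 h compound pre-treatment at 37° C.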

T1 sequence (Q15116 25-288): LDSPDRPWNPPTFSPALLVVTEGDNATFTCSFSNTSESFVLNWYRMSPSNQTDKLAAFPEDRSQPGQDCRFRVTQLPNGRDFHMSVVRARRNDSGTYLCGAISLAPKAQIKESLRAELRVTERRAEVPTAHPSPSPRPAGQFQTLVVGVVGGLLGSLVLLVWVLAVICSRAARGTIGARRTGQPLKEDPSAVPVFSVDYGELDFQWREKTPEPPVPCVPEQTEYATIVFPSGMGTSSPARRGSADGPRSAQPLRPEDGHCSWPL

Structure (SMILES)	pIC50
CC(C)C[C@@H]1NC(=O)[C@H](Cc2c[nH]c3ccccc23)NC(=O)[C@H](CC(=O)O)NC(=O)[C@H](Cc2ccc(C(=O)O)cc2)NC(=O)[C@H](Cc2ccc(OCC(=O)O)cc2)NC(=O)CSC[C@@H](C(=O)NCCOCCOCC(=O)NCCCCCCCCCCC(=O)O)NC(=O)[C@H](CCN)NC(=O)[C@H](C(C)C)NC(=O)[C@H](CC2CCCCC2)NC(=O)[C@H](CCN)NC(=O)[C@@H](CC(C)C)NC(=O)[C@H](CCCN)NC(=O)[C@H](Cc2ccc(O)cc2)NC(=O)[C@H](Cc2ccc(-c3ccccc3)cc2)NC1=O [Compound 1239] ({CH2CO}-Y(Carboxymethyl)[Phe(4-COOH)]DWL[Bip]Y[Orn][dL][Dab][Cha]V[Dab]C[AEEA][Aun]-OH; thioether N-14)	7.52
CC(C)C[C@@H]1NC(=O)[C@H](Cc2c[nH]c3ccccc23)NC(=O)[C@H](CC(=O)O)NC(=O)[C@H](Cc2ccc(C(=O)O)cc2)NC(=O)[C@H](Cc2ccc(OCC(=O)O)cc2)NC(=O)CSC[C@@H](C(=O)NCCOCCOCC(=O)NCCCCCCCCCCC(=O)O)NC(=O)[C@H](CCCN)NC(=O)[C@H](C(C)C)NC(=O)[C@H](CC2CCCCC2)NC(=O)[C@H](CCN)NC(=O)[C@@H](CC(C)C)NC(=O)[C@H](CCCN)NC(=O)[C@H](Cc2ccc(O)cc2)NC(=O)[C@H](Cc2ccc(-c3ccccc3)cc2)NC1=O [Compound 1240] ({CH2CO}-Y(Carboxymethyl)[Phe(4-COOH)]DWL[Bip]Y[Orn][dL][Dab][Cha]V[Orn]C[AEEA][Aun]-OH; thioether N-14)	7.69
CC(C)C[C@@H]1NC(=O)[C@H](Cc2c[nH]c3ccccc23)NC(=O)[C@H](CC(=O)O)NC(=O)[C@H](Cc2ccc(C(=O)O)cc2)NC(=O)[C@H](Cc2ccc(OCC(=O)O)cc2)NC(=O)CSC[C@@H](C(=O)NCCOCCOCC(=O)NCCCCCCCCCCC(=O)O)NC(=O)[C@H](CCCCN)NC(=O)[C@H](C(C)C)NC(=O)[C@H](CC2CCCCC2)NC(=O)[C@H](CCN)NC(=O)[C@@H](CC(C)C)NC(=O)[C@H](CCCN)NC(=O)[C@H](Cc2ccc(O)cc2)NC(=O)[C@H](Cc2ccc(-c3ccccc3)cc2)NC1=O [Compound 1241] ({CH2CO}-Y(Carboxymethyl)[Phe(4-COOH)]DWL[Bip]Y[Orn][dL][Dab][Cha]VKC[AEEA][Aun]-OH; thioether N-14)	7.74
CC(C)C[C@@H]1NC(=O)[C@H](Cc2c[nH]c3ccccc23)NC(=O)[C@H](CC(=O)O)NC(=O)[C@H](Cc2ccc(C(=O)O)cc2)NC(=O)[C@H](Cc2ccc(OCC(=O)O)cc2)NC(=O)CSC[C@@H](C(=O)NCCOCCOCC(=O)NCCCCCCCCCCC(=O)O)NC(=O)[C@H](CCCNC(=N)N)NC(=O)[C@H](C(C)C)NC(=O)[C@H](CC2CCCCC2)NC(=O)[C@H](CCN)NC(=O)[C@@H](CC(C)C)NC(=O)[C@H](CCCN)NC(=O)[C@H](Cc2ccc(O)cc2)NC(=O)[C@H](Cc2ccc(-c3ccccc3)cc2)NC1=O [Compound 1242] ({CH2CO}-Y(Carboxymethyl)[Phe(4-COOH)]DWL[Bip]Y[Orn][dL][Dab][Cha]VRC[AEEA][Aun]-OH; thioether N-14)	7.48
CC(C)C[C@H]1NC(=O)[C@H](CCCN)NC(=O)[C@H](Cc2ccc(O)cc2)NC(=O)[C@H](Cc2ccc(-c3ccccc3)cc2)NC(=O)[C@H](C(C)C)NC(=O)[C@H](Cc2c[nH]c3ccccc23)NC(=O)[C@H](CC(=O)O)NC(=O)[C@H](Cc2ccc(C(=O)O)cc2)NC(=O)[C@H](Cc2ccc(OCC(=O)O)cc2)NC(=O)CSC[C@@H](C(=O)NCCOCCOCC(=O)NCCCCCCCCCCC(=O)O)NC(=O)[C@H](CCCNC(N)=O)NC(=O)C(C(C)C)NC(=O)[C@H](CC2CCCCC2)NC(=O)[C@H](CCN)NC1=O (stereo partly drawn) [Compound 1243] ({CH2CO}-Y(Carboxymethyl)[Phe(4-COOH)]DWV[Bip]Y[Orn][dL][Dab][Cha][ξV][Cit]C[AEEA][Aun]-OH; thioether N-14)	7.93
Cc1cccc(C[C@@H]2NC(=O)[C@H](CC(=O)O)NC(=O)[C@H](Cc3ccc(OCC(=O)O)cc3)NC(=O)[C@H](CN)NC(=O)CSC[C@@H](C(=O)N[C@@H](CCN)C(=O)NCCCCCCCCCCC(=O)O)NC(=O)[C@H](CCC(N)=O)NC(=O)[C@H](C(C)C)NC(=O)[C@H](CC3CCCCC3)NC(=O)[C@H](CCN)NC(=O)[C@@H](CC(C)C)NC(=O)[C@H](CCCN)NC(=O)[C@H](CCCNC(N)=O)NC(=O)[C@H](Cc3ccc(-c4ccccc4)cc3)NC(=O)[C@H](C(C)C)NC2=O)c1 [Compound 1244] ({CH2CO}-[Dap]Y(Carboxymethyl)D[Phe(3-Me)]V[Bip][Cit][Orn][dL][Dab][Cha]VQC[Dab][Aun]-OH; thioether N-14)	7.79
Cc1cccc(C[C@@H]2NC(=O)[C@H](CC(=O)O)NC(=O)[C@H](Cc3ccc(OCC(=O)O)cc3)NC(=O)[C@H](CN)NC(=O)CSC[C@@H](C(=O)N[C@@H](CCN)C(=O)NCCCCCCCCCCC(=O)O)NC(=O)[C@H](CCC(=O)O)NC(=O)[C@H](C(C)C)NC(=O)[C@H](CC3CCCCC3)NC(=O)[C@H](CCN)NC(=O)[C@@H](CC(C)C)NC(=O)[C@H](CCCN)NC(=O)[C@H](Cc3ccc(OCC(=O)O)cc3)NC(=O)[C@H](Cc3ccc(-c4ccccc4)cc3)NC(=O)[C@H](Cc3ccc(OCC(=O)O)cc3)NC2=O)c1 [Compound 1245] ({CH2CO}-[Dap]Y(Carboxymethyl)D[Phe(3-Me)]Y(Carboxymethyl)[Bip]Y(Carboxymethyl)[Orn][dL][Dab][Cha]VEC[Dab][Aun]-OH; thioether N-14)	7.45
Cc1cccc(C[C@@H]2NC(=O)[C@H](CC(=O)O)NC(=O)[C@H](Cc3ccc(OCC(=O)O)cc3)NC(=O)[C@H](CN)NC(=O)CSC[C@@H](C(=O)N[C@@H](CCN)C(=O)NCCCCCCCCCCC(=O)O)NC(=O)[C@H](CCC(N)=O)NC(=O)[C@H](C(C)C)NC(=O)[C@H](CC3CCCCC3)NC(=O)[C@H](CCN)NC(=O)[C@@H](CC(C)C)NC(=O)[C@H](CCCN)NC(=O)[C@H](Cc3ccc(OCC(=O)O)cc3)NC(=O)[C@H](Cc3ccc(-c4ccccc4)cc3)NC(=O)[C@H](Cc3ccc(OCC(=O)O)cc3)NC2=O)c1 [Compound 1247] ({CH2CO}-[Dap]Y(Carboxymethyl)D[Phe(3-Me)]Y(Carboxymethyl)[Bip]Y(Carboxymethyl)[Orn][dL][Dab][Cha]VQC[Dab][Aun]-OH; thioether N-14)	7.75
C#CCOc1ccc(C[C@@H]2NC(=O)[C@H](C(C)C)NC(=O)[C@H](CC3CCCCC3)NC(=O)[C@H](CCN)NC(=O)[C@@H](CC(C)C)NC(=O)[C@H](CCCN)NC(=O)[C@H](Cc3ccc(OCC(=O)O)cc3)NC(=O)[C@H](Cc3ccc(-c4ccccc4)cc3)NC(=O)[C@H](Cc3ccc(OCC(=O)O)cc3)NC(=O)[C@H](Cc3cccc(C)c3)NC(=O)[C@H](CC(=O)O)NC(=O)[C@H](Cc3ccc(OCC(=O)O)cc3)NC(=O)[C@H](CN)NC(=O)CSC[C@@H](C(=O)N[C@@H](CCN)C(=O)NCCCCCCCCCCC(=O)O)NC2=O)cc1 [Compound 1248] ({CH2CO}-[Dap]Y(Carboxymethyl)D[Phe(3-Me)]Y(Carboxymethyl)[Bip]Y(Carboxymethyl)[Orn][dL][Dab][Cha]VY(Propargyl)C[Dab][Aun]-OH; thioether N-14)	6.43
C#CCOc1ccc(C[C@@H]2NC(=O)[C@H](C(C)C)NC(=O)[C@H](CC3CCCCC3)NC(=O)[C@H](CCN)NC(=O)[C@@H](CC(C)C)NC(=O)[C@H](CCCN)NC(=O)[C@H](Cc3ccc(OCC(=O)O)cc3)NC(=O)[C@H](Cc3ccc(-c4ccccc4)cc3)NC(=O)[C@H](Cc3ccc(OCC(=O)O)cc3)NC(=O)[C@H](Cc3cccc(C)c3)NC(=O)[C@H](CC(=O)O)NC(=O)[C@H](Cc3ccncc3)NC(=O)[C@H](Cc3ccc(OCC(=O)O)cc3)NC(=O)CSC[C@@H](C(=O)N[C@@H](CCN)C(=O)NCCCCCCCCCCC(=O)O)NC2=O)cc1 [Compound 1249] ({CH2CO}-Y(Carboxymethyl)[4Pal]D[Phe(3-Me)]Y(Carboxymethyl)[Bip]Y(Carboxymethyl)[Orn][dL][Dab][Cha]VY(Propargyl)C[Dab][Aun]-OH; thioether N-14)	7.09
C#CCOC[C@@H]1NC(=O)[C@H](C(C)C)NC(=O)[C@H](CC2CCCCC2)NC(=O)[C@H](CCN)NC(=O)[C@@H](CC(C)C)NC(=O)[C@H](CCCN)NC(=O)[C@H](Cc2ccc(OCC(=O)O)cc2)NC(=O)[C@H](Cc2ccc(-c3ccccc3)cc2)NC(=O)[C@H](Cc2ccc(OCC(=O)O)cc2)NC(=O)[C@H](Cc2cccc(C)c2)NC(=O)[C@H](CC(=O)O)NC(=O)[C@H](Cc2ccncc2)NC(=O)[C@H](Cc2ccc(OCC(=O)O)cc2)NC(=O)CSC[C@@H](C(=O)N[C@@H](CCN)C(=O)NCCCCCCCCCCC(=O)O)NC1=O [Compound 1250] ({CH2CO}-Y(Carboxymethyl)[4Pal]D[Phe(3-Me)]Y(Carboxymethyl)[Bip]Y(Carboxymethyl)[Orn][dL][Dab][Cha]VS(Propargyl)C[Dab][Aun]-OH; thioether N-14)	7.39
C#CCOc1ccc(C[C@@H]2NC(=O)[C@H](C(C)C)NC(=O)[C@H](CC3CCCCC3)NC(=O)[C@H](CCN)NC(=O)[C@@H](CC(C)C)NC(=O)[C@H](CCCN)NC(=O)[C@H](Cc3ccc(OCC(=O)O)cc3)NC(=O)[C@H](Cc3ccc(-c4ccccc4)cc3)NC(=O)[C@H](Cc3ccc(OCC(=O)O)cc3)NC(=O)[C@H](Cc3cccc(C)c3)NC(=O)[C@H](CC(=O)O)NC(=O)[C@H](Cc3ccc(OCC(=O)O)cc3)NC(=O)[C@H](CN)NC(=O)CSC[C@@H](C(=O)N[C@@H](CCN)C(=O)NCCOCCOCC(=O)NCCCCCCCCCCC(=O)O)NC2=O)cc1 [Compound 1251] ({CH2CO}-[Dap]Y(Carboxymethyl)D[Phe(3-Me)]Y(Carboxymethyl)[Bip]Y(Carboxymethyl)[Orn][dL][Dab][Cha]VY(Propargyl)C[Dab][AEEA][Aun]-OH; thioether N-14)	7.42
